Here are results for three compounds from US20100104621A1, “TREATING ADHD AND OTHER DISEASES INVOLVING INFLAMMATION” (CONNECTED HEALTH SYSTEMS, LLC, priority 2007, published 2010).

Assay [1] concerns pyramidal neurons in the medial prefrontal cortex. The following applies: after 12 days of continuous administration; cited from earlier work.
For assay [2], the system named is VEGF. The following applies: animal studies; cited from earlier work.
Assay [3] has as its system ovarian cancer. The following applies: in 10 days, animal studies; cited from earlier work.
Assay [4] relates to patient with OCD and ADHD, and their child. Nature of the assay: Example 4: family with history of ADHD, OCD and cancer. In kind it is in vivo, human. An excerpt: The 5HT2A receptor has been associated with OCD, Seasonal Affective Disorder, Alcoholism, and a predisposition toward Schizophrenia. The gene for this receptor is found on chromosome 13. A patient presents with OCD and ADHD. Two of their children also are diagnosed with OCD and ADHD. […] They test positive for BRCA2 which is also found on chromosome 13 in the same region as the gene for the 5HT2A receptor.
Lowered catecholamines lead to slightly elevated prolactin and can alter GnRH. Elevated GnRH leads to spikes in estrogen and progesterone and may eventually lead to premature ovarian failure along with alterations in inflammation and co-factors. Elevated interleukins lead to increased free radical production and damage to DNA. Lowered dopamine would allow for angiogenesis. Elevated interleukins could induce CREB and increase the expression of ICAM and VCAM. BRCA2 lowers p53, p21 (tumor suppressor genes) as well as RAD51, which repairs damage to DNA. Catecholamines may interact with genes involved in cancer via common second messenger systems. Laboratory tests reveal that the patient has a high vitamin B6 level of 100, and an abnormal amino acid profile.
Treatment of the patient includes administering an extended release CNS stimulant at an appropriate dosage to achieve the desired therapeutic effect, substantially around the clock. […]

Assay [5] concerns person with stage 4 ovarian cancer. Nature of the assay: Example 6: person with stage 4 ovarian cancer. In kind it is in vivo, human. The following applies: with Adderall XR. An excerpt:
A person presents with stage 4 ovarian cancer, skin picking, irritable bowel syndrome, PMS, allergies, and a tonsillectomy. They are BRCA1 positive and lost their parent due to breast cancer. Other family members have succumbed to breast cancer, pancreatic cancer, and colon cancer. They are screened for ADHD and is started on Adderall XR and titrated up to 15 mgs three times a day. They are tapered off Prozac for depression. Six weeks later they state that their depression is gone and their energy level is back to normal and their strength is retuning. Their nausea is also gone. […] When they ran out of vitamin B6, their skin picking returns in one week, but stops the day they resume taking vitamin B6.
Catecholamines may interact with genes involved in cancer in certain tissues. BRCA1 knocks p21, p53, and RAD51 out. Genes can be turned on and off based on signaling. Their amino acid profile fits with a defect in pyridoxine-5′-phosphate oxidase which is located on […]. This is beside BRCA1 on chromosome 17. It is possible the patient has a defect in SLC6A4 not ADHD 2 on 17p11.2. 17p11.2 is the site of serine hydroxymethyltransferase. Additionally, it is possible that second messengers that are inactivated by BRCA-1 are responsible for lowering their catecholamines. […]

For assay [6], the system named is obese person diagnosed with ADHD. Nature of the assay: Example 5: treatment of obese person with ADHD. In kind it is in vivo, human. The following applies: with Adderall XR; amino acid supplements for 4 months then stopped. An excerpt:
An obese person presents complaining of depression. They are on Lipitor for high cholesterol and has a heart rate of 116 and a blood pressure of 166/112. They also have “heart burn”. They are diagnosed with ADHD and titrated up to 15 mgs of Adderall XR three times a day. Their heart rate decreases to 100 at the first visit four weeks later and after 8 weeks it is 88. Based on lab reports, their vitamin B6 level is elevated at 56 and they are deficient in arginine, ornithine, histidine, threonine, and taurine along with other amino acids. They also have an elevated IL-6 level. Their vitamin D3 level is also very low. They are started on P-5-P and is supplemented with the aforementioned amino acids to help replenish their body. Their taurine level is 18 and normal is at 54. They are a candidate for developing a cardiac arrhythmia.
[…] Their blood pressure and heart rate continue to decline and they begin to lose weight despite having a normal appetite. […] Their depression is gone and they are dreaming about becoming a lawyer. They remain on Adderall XR, however their dose is decreased to 10 mgs three times a day. They remain on P-5-P. The patient's amino acid profile is normal and their CRP is normal. CRP is an indirect measure of IL-6 and is impacted by low levels of P-5-P.

For the compound `CC(N)Cc1ccccc1` (centres unmarked) [amphetamine], the “dendritic length and branches of pyramidal neurons in the medial prefrontal cortex” value in assay [1] is “increase in dendritic length and branches”.

Take `NCCc1ccc(O)c(O)c1` [Dopamine]: the “effect on VEGF” value in assay [2] is “inhibit”. In addition, in assay [3], the “shrinkage of ovarian cancer” value is 80%.

`Cc1ncc(COP(=O)(O)O)c(C=O)c1O` [P-5-P, pyridoxal 5′-phosphate]: the amino acid profile entry is given as “returns to normal” in assay [4] (child, with around the clock stimulant, fish oil and antioxidants); “corrects” in assay [4] (parent, 100 mgs, with extended release CNS stimulant); “normal” in assay [6]. The skin picking entry in assay [5] is listed as “stops that same day”. In addition, the CRP entry in assay [6] is reported as “normal”.
